# Data taken from PubChem BioAssay (NCI).
#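 Briefly, cells in 96-well plates were exposed to five compound concentrations for 48 h, and endpoints were estimated by linear interpolation. TGI: concentration producing complete growth inhibition.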
# Legend:
# Assay in all cases: DTP human tumour cell line panel, 48 h
# 786-0 renal = tested on: 786-0 renal
# A498 renal = tested on: A498 renal
# A549 NSCLC = tested on: A549 NSCLC
# ACHN renal = tested on: ACHN renal
# BT-549 breast = tested on: BT-549 breast
# CAKI-1 renal = tested on: CAKI-1 renal
# CCRF-CEM leukemia = tested on: CCRF-CEM leukemia
# COLO 205 colon = tested on: COLO 205 colon
# DU-145 prostate = tested on: DU-145 prostate
# EKVX NSCLC = tested on: EKVX NSCLC
# HCC-2998 colon = tested on: HCC-2998 colon
# HCT-116 colon = tested on: HCT-116 colon
# HCT-15 colon = tested on: HCT-15 colon
# HOP-62 NSCLC = tested on: HOP-62 NSCLC
# HOP-92 NSCLC = tested on: HOP-92 NSCLC
# HS 578T breast = tested on: HS 578T breast
# HT29 colon = tested on: HT29 colon
# IGROV1 ovarian = tested on: IGROV1 ovarian
# KM12 colon = tested on: KM12 colon
# LOX IMVI melanoma = tested on: LOX IMVI melanoma
# M14 melanoma = tested on: M14 melanoma
# MALME-3M melanoma = tested on: MALME-3M melanoma
# MCF7 breast = tested on: MCF7 breast
# MDA-MB-231 breast = tested on: MDA-MB-231 breast
# MDA-MB-435 = tested on: MDA-MB-435
# MDA-N = tested on: MDA-N
# MOLT-4 leukemia = tested on: MOLT-4 leukemia
# NCI-H226 lung = tested on: NCI-H226 lung
# NCI-H23 lung = tested on: NCI-H23 lung
# NCI-H460 lung = tested on: NCI-H460 lung
# NCI-H522 lung = tested on: NCI-H522 lung
# NCI/ADR-RES ovarian = tested on: NCI/ADR-RES ovarian
# OVCAR-3 ovarian = tested on: OVCAR-3 ovarian
# OVCAR-4 ovarian = tested on: OVCAR-4 ovarian
# OVCAR-5 ovarian = tested on: OVCAR-5 ovarian
# OVCAR-8 ovarian = tested on: OVCAR-8 ovarian
# PC-3 prostate = tested on: PC-3 prostate
# RPMI-8226 leukemia = tested on: RPMI-8226 leukemia
# RXF 393 renal = tested on: RXF 393 renal
# SF-268 CNS = tested on: SF-268 CNS
# SF-295 CNS = tested on: SF-295 CNS
# SF-539 CNS = tested on: SF-539 CNS
# SK-MEL-2 melanoma = tested on: SK-MEL-2 melanoma
# SK-MEL-28 melanoma = tested on: SK-MEL-28 melanoma
# SK-MEL-5 melanoma = tested on: SK-MEL-5 melanoma
# SK-OV-3 ovarian = tested on: SK-OV-3 ovarian
# SN12C renal = tested on: SN12C renal
# SNB-19 CNS = tested on: SNB-19 CNS
# SNB-75 CNS = tested on: SNB-75 CNS
# SR leukemia = tested on: SR leukemia
# SW-620 colon = tested on: SW-620 colon
# T-47D breast = tested on: T-47D breast
# TK-10 renal = tested on: TK-10 renal
# U251 CNS = tested on: U251 CNS
# UACC-257 melanoma = tested on: UACC-257 melanoma
# UACC-62 melanoma = tested on: UACC-62 melanoma
# UO-31 renal = tested on: UO-31 renal
# HL-60(TB) leukemia = tested on: HL-60(TB) leukemia
# K-562 leukemia = tested on: K-562 leukemia
compound,measurement,setting,value
O=c1c2ccccc2nc(-c2cccc([N+](=O)[O-])c2)n1O,TGI,786-0 renal,> 100 µM
same,TGI,A498 renal,> 85.1 µM
same,TGI,A549 NSCLC,> 100 µM
same,TGI,ACHN renal,> 100 µM
same,TGI,BT-549 breast,80.8 µM
same,TGI,CAKI-1 renal,> 100 µM
same,TGI,CCRF-CEM leukemia,> 38.2 µM
same,TGI,COLO 205 colon,> 100 µM
same,TGI,DU-145 prostate,> 100 µM
same,TGI,EKVX NSCLC,> 100 µM
same,TGI,HCC-2998 colon,> 100 µM
same,TGI,HCT-116 colon,> 100 µM
same,TGI,HCT-15 colon,> 100 µM
same,TGI,HOP-62 NSCLC,> 100 µM
same,TGI,HOP-92 NSCLC,> 75.1 µM
same,TGI,HS 578T breast,> 100 µM
same,TGI,HT29 colon,> 100 µM
same,TGI,IGROV1 ovarian,> 100 µM
same,TGI,KM12 colon,> 100 µM
same,TGI,LOX IMVI melanoma,> 100 µM
same,TGI,M14 melanoma,> 100 µM
same,TGI,MALME-3M melanoma,> 100 µM
same,TGI,MCF7 breast,> 100 µM
same,TGI,MDA-MB-231 breast,> 100 µM
same,TGI,MDA-MB-435,> 100 µM
same,TGI,MDA-N,> 100 µM
same,TGI,MOLT-4 leukemia,> 100 µM
same,TGI,NCI-H226 lung,> 100 µM
same,TGI,NCI-H23 lung,> 100 µM
same,TGI,NCI-H460 lung,> 100 µM
same,TGI,NCI-H522 lung,> 88.8 µM
same,TGI,NCI/ADR-RES ovarian,> 87.4 µM
same,TGI,OVCAR-3 ovarian,> 94.3 µM
same,TGI,OVCAR-4 ovarian,> 100 µM
same,TGI,OVCAR-5 ovarian,> 100 µM
same,TGI,OVCAR-8 ovarian,63.9 µM
same,TGI,PC-3 prostate,98.7 µM
same,TGI,RPMI-8226 leukemia,> 33.7 µM
same,TGI,RXF 393 renal,> 100 µM
same,TGI,SF-268 CNS,> 100 µM
same,TGI,SF-295 CNS,> 100 µM
same,TGI,SF-539 CNS,> 100 µM
same,TGI,SK-MEL-2 melanoma,91.1 µM
same,TGI,SK-MEL-28 melanoma,> 100 µM
same,TGI,SK-MEL-5 melanoma,> 100 µM
same,TGI,SK-OV-3 ovarian,> 100 µM
same,TGI,SN12C renal,> 100 µM
same,TGI,SNB-19 CNS,> 100 µM
same,TGI,SNB-75 CNS,> 100 µM
same,TGI,SR leukemia,> 100 µM
same,TGI,SW-620 colon,> 100 µM
same,TGI,T-47D breast,> 100 µM
same,TGI,TK-10 renal,> 100 µM
same,TGI,U251 CNS,> 100 µM
same,TGI,UACC-257 melanoma,> 100 µM
same,TGI,UACC-62 melanoma,> 100 µM
same,TGI,UO-31 renal,> 100 µM
N=c1sc2ccccc2n1CCS (tested in a mixture with another compound),TGI,786-0 renal,35.8 µM
same,TGI,A498 renal,33.2 µM
same,TGI,A549 NSCLC,37.3 µM
same,TGI,ACHN renal,31.7 µM
same,TGI,BT-549 breast,48.4 µM
same,TGI,CAKI-1 renal,45.8 µM
same,TGI,CCRF-CEM leukemia,> 100 µM
same,TGI,COLO 205 colon,27.5 µM
same,TGI,DU-145 prostate,46 µM
same,TGI,EKVX NSCLC,62.3 µM
same,TGI,HCC-2998 colon,30.8 µM
same,TGI,HCT-116 colon,30.5 µM
same,TGI,HCT-15 colon,34.6 µM
same,TGI,HL-60(TB) leukemia,66.9 µM
same,TGI,HOP-62 NSCLC,39.8 µM
same,TGI,HOP-92 NSCLC,38.4 µM
same,TGI,HS 578T breast,> 100 µM
same,TGI,HT29 colon,37.1 µM
same,TGI,IGROV1 ovarian,27.5 µM
same,TGI,K-562 leukemia,44.7 µM
same,TGI,KM12 colon,35.5 µM
same,TGI,LOX IMVI melanoma,30.5 µM
same,TGI,M14 melanoma,30.6 µM
same,TGI,MALME-3M melanoma,37.6 µM
same,TGI,MCF7 breast,25.6 µM
same,TGI,MDA-MB-231 breast,35.9 µM
same,TGI,MDA-MB-435,36.3 µM
same,TGI,MDA-N,> 100 µM
same,TGI,MOLT-4 leukemia,8.45 µM
same,TGI,NCI-H226 lung,35.3 µM
same,TGI,NCI-H23 lung,32.3 µM
same,TGI,NCI-H460 lung,27.5 µM
same,TGI,NCI-H522 lung,45.4 µM
same,TGI,NCI/ADR-RES ovarian,45.3 µM
same,TGI,OVCAR-3 ovarian,40.9 µM
same,TGI,OVCAR-4 ovarian,46.9 µM
same,TGI,OVCAR-5 ovarian,57.3 µM
same,TGI,OVCAR-8 ovarian,31.8 µM
same,TGI,PC-3 prostate,> 100 µM
same,TGI,RXF 393 renal,48.5 µM
same,TGI,SF-268 CNS,49.1 µM
same,TGI,SF-295 CNS,42 µM
same,TGI,SF-539 CNS,19.3 µM
same,TGI,SK-MEL-2 melanoma,45.5 µM
same,TGI,SK-MEL-28 melanoma,41.4 µM
same,TGI,SK-MEL-5 melanoma,28 µM
same,TGI,SK-OV-3 ovarian,53.6 µM
same,TGI,SN12C renal,59.4 µM
same,TGI,SNB-19 CNS,37.6 µM
same,TGI,SNB-75 CNS,> 100 µM
same,TGI,SW-620 colon,> 100 µM
same,TGI,T-47D breast,> 100 µM
same,TGI,TK-10 renal,48.6 µM
same,TGI,U251 CNS,29.1 µM
same,TGI,UACC-257 melanoma,45.8 µM
same,TGI,UACC-62 melanoma,26.9 µM
same,TGI,UO-31 renal,25.8 µM
